The results in this text go back to patent publication US12275731B2, “Azaindole inhibitors of wild-type and mutant forms of LRRK2” (DANA-FARBER CANCER INSTITUTE, INC., priority 2018, dated 2025).

Common to all, as to assay: KinomeScan profiling
Type in all cases: binding

The target of experiment [1] is T1, ABL1(Q252H)-nonphosphorylated (Homo sapiens, UniProt P00519, Q252H).
T1 construct: purchased KinomeScan®
The settings on record: read-out: % control. Summed up:
(§1)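 1 μM cpd in DMSO; 468-kinase panel; readout RLU. % ctrl = (cpd − pos ctrl)/(neg ctrl − pos ctrl) ×100. Pos ctrl = 0%, DMSO = 100%. Hit cut-off <35%.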

In experiment [2] the target is T2, JAK2(JH1domain-catalytic) (Homo sapiens, UniProt O60674).
T2 construct: Janus kinase 2 (JAK2)(JH1domain-catalytic); purchased KinomeScan®
T2 sequence (O60674 849-1124 limits assumed): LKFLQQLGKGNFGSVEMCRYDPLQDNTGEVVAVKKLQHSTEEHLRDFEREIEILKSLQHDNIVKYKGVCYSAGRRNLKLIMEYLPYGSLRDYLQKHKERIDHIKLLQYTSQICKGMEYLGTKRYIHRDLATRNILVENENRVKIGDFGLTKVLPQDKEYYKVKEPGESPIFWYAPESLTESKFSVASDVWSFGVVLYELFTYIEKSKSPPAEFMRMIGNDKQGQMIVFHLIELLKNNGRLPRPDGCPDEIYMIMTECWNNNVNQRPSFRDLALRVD
To be noted: read-out: % control. Summed up:
as §1

The target of a further experiment is T3, MUSK (Homo sapiens, UniProt O15146).
T3 sequence (O15146 24-869): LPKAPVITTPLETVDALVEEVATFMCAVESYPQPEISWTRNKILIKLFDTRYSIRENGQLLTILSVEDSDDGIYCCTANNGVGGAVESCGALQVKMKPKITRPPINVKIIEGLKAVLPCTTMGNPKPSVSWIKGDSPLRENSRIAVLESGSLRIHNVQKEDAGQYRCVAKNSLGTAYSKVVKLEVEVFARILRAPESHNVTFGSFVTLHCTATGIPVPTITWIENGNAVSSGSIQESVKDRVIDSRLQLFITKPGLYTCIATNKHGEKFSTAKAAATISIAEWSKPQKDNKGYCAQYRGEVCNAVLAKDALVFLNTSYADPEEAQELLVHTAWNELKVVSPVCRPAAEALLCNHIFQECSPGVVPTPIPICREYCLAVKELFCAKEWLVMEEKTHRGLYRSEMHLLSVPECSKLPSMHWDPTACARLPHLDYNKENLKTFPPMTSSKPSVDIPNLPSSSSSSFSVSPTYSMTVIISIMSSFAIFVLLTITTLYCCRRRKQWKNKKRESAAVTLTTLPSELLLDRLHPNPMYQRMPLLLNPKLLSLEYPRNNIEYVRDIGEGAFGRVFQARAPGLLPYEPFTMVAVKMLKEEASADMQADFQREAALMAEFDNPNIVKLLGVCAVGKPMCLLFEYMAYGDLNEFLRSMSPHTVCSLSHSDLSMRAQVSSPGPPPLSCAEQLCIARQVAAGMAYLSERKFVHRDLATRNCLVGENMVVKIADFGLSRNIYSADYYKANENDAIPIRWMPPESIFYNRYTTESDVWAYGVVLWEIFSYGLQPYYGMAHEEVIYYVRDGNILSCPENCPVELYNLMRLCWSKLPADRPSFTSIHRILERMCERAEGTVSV
The settings on record: read-out: % control. Summed up:
as §1

The target of a further experiment is MYLK (Homo sapiens, UniProt Q15746). The settings on record: read-out: % control. Summed up: as §1
Sequence of MYLK (Q15746 whole entry): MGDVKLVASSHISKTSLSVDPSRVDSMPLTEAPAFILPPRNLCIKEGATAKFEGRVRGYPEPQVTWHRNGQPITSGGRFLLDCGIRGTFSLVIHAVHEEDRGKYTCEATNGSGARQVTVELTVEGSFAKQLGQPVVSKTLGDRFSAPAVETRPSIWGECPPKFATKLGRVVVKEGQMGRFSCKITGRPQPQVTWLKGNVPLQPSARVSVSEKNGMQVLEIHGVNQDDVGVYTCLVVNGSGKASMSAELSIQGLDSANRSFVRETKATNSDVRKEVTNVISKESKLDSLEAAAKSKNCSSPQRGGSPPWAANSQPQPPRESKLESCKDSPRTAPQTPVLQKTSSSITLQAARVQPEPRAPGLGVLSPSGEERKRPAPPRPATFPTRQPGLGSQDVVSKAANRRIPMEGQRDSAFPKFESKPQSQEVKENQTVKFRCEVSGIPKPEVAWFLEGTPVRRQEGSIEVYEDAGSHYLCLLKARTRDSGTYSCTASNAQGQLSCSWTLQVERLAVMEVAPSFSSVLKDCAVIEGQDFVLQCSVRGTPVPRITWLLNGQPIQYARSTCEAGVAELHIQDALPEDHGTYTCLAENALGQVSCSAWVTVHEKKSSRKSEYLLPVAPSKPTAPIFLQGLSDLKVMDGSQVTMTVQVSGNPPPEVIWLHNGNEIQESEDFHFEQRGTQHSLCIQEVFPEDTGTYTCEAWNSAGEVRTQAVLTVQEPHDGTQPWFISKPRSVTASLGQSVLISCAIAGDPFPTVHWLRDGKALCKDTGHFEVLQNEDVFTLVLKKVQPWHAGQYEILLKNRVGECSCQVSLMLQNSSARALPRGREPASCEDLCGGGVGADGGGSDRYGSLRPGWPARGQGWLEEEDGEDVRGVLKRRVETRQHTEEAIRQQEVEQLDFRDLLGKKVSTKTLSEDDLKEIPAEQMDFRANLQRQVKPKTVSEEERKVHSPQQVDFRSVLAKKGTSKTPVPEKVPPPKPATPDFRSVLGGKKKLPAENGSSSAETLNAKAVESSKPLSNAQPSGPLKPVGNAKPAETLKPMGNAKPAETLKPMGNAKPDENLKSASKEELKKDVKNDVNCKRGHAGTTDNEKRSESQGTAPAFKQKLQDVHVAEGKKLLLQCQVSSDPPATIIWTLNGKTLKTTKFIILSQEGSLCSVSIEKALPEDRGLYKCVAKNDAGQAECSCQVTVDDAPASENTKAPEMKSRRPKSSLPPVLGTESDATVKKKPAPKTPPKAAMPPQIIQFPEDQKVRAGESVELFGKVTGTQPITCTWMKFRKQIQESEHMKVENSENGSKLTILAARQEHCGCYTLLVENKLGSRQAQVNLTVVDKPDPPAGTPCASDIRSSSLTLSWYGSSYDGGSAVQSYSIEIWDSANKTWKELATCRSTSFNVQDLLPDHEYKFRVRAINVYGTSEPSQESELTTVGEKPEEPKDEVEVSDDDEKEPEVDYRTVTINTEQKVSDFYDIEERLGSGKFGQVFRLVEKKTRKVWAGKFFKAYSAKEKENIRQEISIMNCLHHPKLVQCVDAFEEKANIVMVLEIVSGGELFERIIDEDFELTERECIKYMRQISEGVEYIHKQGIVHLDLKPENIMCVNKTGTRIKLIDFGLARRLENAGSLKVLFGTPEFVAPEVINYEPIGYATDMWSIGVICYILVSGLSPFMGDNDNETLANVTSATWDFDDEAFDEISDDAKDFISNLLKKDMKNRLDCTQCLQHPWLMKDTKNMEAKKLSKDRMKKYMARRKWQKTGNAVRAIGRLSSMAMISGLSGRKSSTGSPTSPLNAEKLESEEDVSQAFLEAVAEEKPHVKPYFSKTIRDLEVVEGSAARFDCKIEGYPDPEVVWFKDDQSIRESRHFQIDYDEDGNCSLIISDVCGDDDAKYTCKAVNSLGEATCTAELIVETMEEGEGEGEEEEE
The target in another experiment is PAK2 (Homo sapiens, UniProt Q13177). To be noted: PAK2, 1 μM; read-out: % control. Summed up:
(§2)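 Selectivity was assessed by binding competition at 1 μM against 468 kinases. Values below 35% of control define an interaction.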

The target in a further experiment is PDGFRB (Homo sapiens, UniProt P09619). To be noted: read-out: % control. Summed up: as §2
Sequence of PDGFRB (P09619 33-1106): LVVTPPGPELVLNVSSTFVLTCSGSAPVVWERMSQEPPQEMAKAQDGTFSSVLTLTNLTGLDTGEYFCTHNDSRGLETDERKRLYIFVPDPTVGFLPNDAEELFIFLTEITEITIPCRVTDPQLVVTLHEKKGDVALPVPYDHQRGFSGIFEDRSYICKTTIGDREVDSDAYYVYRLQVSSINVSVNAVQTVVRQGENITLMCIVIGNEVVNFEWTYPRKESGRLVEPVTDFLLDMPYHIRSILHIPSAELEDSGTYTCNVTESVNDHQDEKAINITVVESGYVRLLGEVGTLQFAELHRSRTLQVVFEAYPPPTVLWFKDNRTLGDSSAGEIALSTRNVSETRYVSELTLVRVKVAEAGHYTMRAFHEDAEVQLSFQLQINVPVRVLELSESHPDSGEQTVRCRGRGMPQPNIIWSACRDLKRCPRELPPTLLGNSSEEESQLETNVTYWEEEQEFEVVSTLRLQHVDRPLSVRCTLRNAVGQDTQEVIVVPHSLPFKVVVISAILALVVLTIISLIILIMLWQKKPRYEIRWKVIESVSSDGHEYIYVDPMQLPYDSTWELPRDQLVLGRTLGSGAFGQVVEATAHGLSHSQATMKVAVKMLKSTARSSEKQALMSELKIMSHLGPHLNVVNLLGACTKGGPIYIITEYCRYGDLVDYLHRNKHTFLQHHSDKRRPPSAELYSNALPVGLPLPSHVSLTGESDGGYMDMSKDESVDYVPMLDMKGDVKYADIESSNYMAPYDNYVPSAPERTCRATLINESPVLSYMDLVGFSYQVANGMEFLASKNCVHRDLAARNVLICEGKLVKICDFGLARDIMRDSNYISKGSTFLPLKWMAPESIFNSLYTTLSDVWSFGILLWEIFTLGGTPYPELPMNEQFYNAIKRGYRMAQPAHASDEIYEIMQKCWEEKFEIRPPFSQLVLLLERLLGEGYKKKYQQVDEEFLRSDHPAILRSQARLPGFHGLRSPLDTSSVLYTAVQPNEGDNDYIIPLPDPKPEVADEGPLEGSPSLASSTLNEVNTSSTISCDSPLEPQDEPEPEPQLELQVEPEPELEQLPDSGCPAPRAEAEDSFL
The next experiment deals with T4, PRKD3 (Homo sapiens, UniProt O94806).
T4 sequence (O94806 1-890): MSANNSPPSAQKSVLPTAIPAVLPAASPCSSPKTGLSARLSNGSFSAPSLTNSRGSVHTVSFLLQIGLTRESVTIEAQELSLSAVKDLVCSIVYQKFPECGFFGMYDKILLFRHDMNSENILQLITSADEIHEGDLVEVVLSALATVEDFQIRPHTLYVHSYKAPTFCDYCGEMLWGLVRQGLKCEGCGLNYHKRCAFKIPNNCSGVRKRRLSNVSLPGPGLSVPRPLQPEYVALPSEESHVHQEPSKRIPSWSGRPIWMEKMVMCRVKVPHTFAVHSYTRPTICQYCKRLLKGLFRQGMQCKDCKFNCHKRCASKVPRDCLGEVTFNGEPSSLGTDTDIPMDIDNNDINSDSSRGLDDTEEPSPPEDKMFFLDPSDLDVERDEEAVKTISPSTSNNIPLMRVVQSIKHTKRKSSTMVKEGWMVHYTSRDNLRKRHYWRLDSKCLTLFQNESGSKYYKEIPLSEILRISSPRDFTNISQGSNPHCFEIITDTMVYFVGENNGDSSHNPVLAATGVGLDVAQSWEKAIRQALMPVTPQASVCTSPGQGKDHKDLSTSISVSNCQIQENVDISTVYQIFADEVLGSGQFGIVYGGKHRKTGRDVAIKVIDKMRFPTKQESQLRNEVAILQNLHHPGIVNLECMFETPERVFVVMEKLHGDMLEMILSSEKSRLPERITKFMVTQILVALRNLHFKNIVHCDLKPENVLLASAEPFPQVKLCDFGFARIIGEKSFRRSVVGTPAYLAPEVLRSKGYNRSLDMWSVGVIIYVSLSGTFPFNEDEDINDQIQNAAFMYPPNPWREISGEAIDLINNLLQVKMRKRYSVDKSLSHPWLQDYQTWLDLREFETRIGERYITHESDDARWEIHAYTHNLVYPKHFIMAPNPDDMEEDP
The settings on record: PRKD3, 1 μM; read-out: % control. Summed up:
as §1

The next experiment deals with T5, RIOK1 (Homo sapiens, UniProt Q9BRS2).
T5 sequence (Q9BRS2 1-568): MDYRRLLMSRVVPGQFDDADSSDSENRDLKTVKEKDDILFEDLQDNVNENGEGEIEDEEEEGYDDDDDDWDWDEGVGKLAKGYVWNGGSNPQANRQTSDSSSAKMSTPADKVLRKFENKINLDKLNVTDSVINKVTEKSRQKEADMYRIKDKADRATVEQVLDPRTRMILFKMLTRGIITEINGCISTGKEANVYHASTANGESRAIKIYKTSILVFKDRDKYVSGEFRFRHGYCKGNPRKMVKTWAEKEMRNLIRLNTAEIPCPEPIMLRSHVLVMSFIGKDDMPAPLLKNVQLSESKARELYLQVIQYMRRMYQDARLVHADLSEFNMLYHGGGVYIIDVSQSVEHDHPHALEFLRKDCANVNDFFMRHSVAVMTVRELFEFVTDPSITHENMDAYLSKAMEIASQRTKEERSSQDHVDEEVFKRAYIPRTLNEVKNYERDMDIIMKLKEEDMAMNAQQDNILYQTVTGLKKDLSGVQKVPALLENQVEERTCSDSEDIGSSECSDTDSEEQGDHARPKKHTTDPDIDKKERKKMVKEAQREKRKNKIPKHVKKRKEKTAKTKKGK
To be noted: RIOK1, 1 μM; read-out: % control. Summed up: as §1

Sequence of PAK2 (Q13177 whole entry): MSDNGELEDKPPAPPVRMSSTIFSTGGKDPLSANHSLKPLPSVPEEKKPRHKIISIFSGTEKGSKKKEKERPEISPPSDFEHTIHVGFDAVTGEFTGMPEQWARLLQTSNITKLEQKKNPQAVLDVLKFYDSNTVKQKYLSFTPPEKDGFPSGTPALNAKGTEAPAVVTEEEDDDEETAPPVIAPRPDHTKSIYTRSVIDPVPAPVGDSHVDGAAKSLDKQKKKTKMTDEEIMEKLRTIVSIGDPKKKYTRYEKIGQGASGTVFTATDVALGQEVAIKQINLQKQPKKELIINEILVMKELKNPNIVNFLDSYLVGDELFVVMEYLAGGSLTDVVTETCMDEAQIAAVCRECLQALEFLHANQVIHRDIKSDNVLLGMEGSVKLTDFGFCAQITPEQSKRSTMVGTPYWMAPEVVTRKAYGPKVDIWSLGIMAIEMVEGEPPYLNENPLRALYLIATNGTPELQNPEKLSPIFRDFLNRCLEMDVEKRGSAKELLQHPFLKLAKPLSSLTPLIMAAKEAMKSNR

On to `CNc1c(-c2cnn([C@H]3CCN(C(C)=O)C[C@@H]3F)c2)cnc2[nH]cc(Cl)c12` [Compound 77, 1-((3S,4S)-4-(4-(3-chloro-4-(methylamino)-1H-pyrrolo[2,3-b]pyridin-5-yl)-1H-pyrazol-1-yl)-3-fluoropiperidin-1-yl)ethan-1-one], for which the remaining binding at 1 µM worked out at 50% in experiment [1]; 7.9% in experiment [2]; 100% at MUSK; 72% at MYLK; 100% on PAK2; 20% at PDGFRB. Besides, the remaining binding at 1 µM at PRKD3 turned out to be 56%; on RIOK1, 0%.

`CNc1c(-c2ccc(C(=O)N3CCC(N4CCOCC4)CC3)cc2)cnc2[nH]cc(Cl)c12` [Compound 96, (4-(3-chloro-4-(methylamino)-1H-pyrrolo[2,3-b]pyridin-5-yl)phenyl)(4-morpholinopiperidin-1-yl)methanone]: the remaining binding at 1 µM came to 64% in experiment [1]; 29% in experiment [2]; 100% at MUSK; 85% on MYLK; 96% on PAK2; 21% on PDGFRB. In addition, the remaining binding at 1 µM on PRKD3 turned out to be 13%; on RIOK1 it was 0.15%.

`O=C(c1ccc(-c2cnc3[nH]cc(Cl)c3c2NC2CCCC2)cc1)N1CCC(N2CCOCC2)CC1` [Compound 101, (4-(3-chloro-4-(cyclopentylamino)-1H-pyrrolo[2,3-b]pyridin-5-yl)phenyl)(4-morpholinopiperidin-1-yl)methanone]: the remaining binding at 1 µM in experiment [1] came out at 92%; in experiment [2], 100%; on MUSK it was 67%; on MYLK it was 83%; on PAK2, 80%; at PDGFRB it was 83%. The remaining binding at 1 µM at PRKD3 is 35%; at RIOK1 it was 11%.
